Assay results from PubChem BioAssay (NCI).
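Exposure lasted 48 hours, with cells grown in 96-well plates and compounds tested at five concentrations. At the GI50, growth is halved. Definition used: TGI = concentration required for complete inhibition of growth.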

Key:
Test in all cases: NCI anticancer screen, dose series, 48 h
HOP-62 NSCLC = system: HOP-62 NSCLC
SK-OV-3 ovarian = system: SK-OV-3 ovarian
OVCAR-5 ovarian = system: OVCAR-5 ovarian
HS 578T breast = system: HS 578T breast
A549 NSCLC = system: A549 NSCLC
NCI-H23 lung = system: NCI-H23 lung
ACHN renal = system: ACHN renal
786-0 renal = system: 786-0 renal
T-47D breast = system: T-47D breast
HT29 colon = system: HT29 colon
CCRF-CEM leukemia = system: CCRF-CEM leukemia
UACC-62 melanoma = system: UACC-62 melanoma
NCI/ADR-RES ovarian = system: NCI/ADR-RES ovarian
UO-31 renal = system: UO-31 renal
EKVX NSCLC = system: EKVX NSCLC
OVCAR-4 ovarian = system: OVCAR-4 ovarian
KM12 colon = system: KM12 colon
SNB-75 CNS = system: SNB-75 CNS
UACC-257 melanoma = system: UACC-257 melanoma
SN12C renal = system: SN12C renal
CAKI-1 renal = system: CAKI-1 renal
A498 renal = system: A498 renal
PC-3 prostate = system: PC-3 prostate
SF-539 CNS = system: SF-539 CNS
SF-268 CNS = system: SF-268 CNS
HOP-92 NSCLC = system: HOP-92 NSCLC
RXF 393 renal = system: RXF 393 renal
MDA-N = system: MDA-N
SK-MEL-5 melanoma = system: SK-MEL-5 melanoma
MALME-3M melanoma = system: MALME-3M melanoma
COLO 205 colon = system: COLO 205 colon
SK-MEL-28 melanoma = system: SK-MEL-28 melanoma
RPMI-8226 leukemia = system: RPMI-8226 leukemia
MDA-MB-435 = system: MDA-MB-435
HCT-116 colon = system: HCT-116 colon
TK-10 renal = system: TK-10 renal
SK-MEL-2 melanoma = system: SK-MEL-2 melanoma
SW-620 colon = system: SW-620 colon
NCI-H460 lung = system: NCI-H460 lung
SF-295 CNS = system: SF-295 CNS
MDA-MB-231 breast = system: MDA-MB-231 breast
HL-60(TB) leukemia = system: HL-60(TB) leukemia
NCI-H226 lung = system: NCI-H226 lung
DU-145 prostate = system: DU-145 prostate
HCC-2998 colon = system: HCC-2998 colon
NCI-H522 lung = system: NCI-H522 lung
OVCAR-8 ovarian = system: OVCAR-8 ovarian
MCF7 breast = system: MCF7 breast
HCT-15 colon = system: HCT-15 colon
MOLT-4 leukemia = system: MOLT-4 leukemia
SNB-19 CNS = system: SNB-19 CNS
OVCAR-3 ovarian = system: OVCAR-3 ovarian
K-562 leukemia = system: K-562 leukemia
SR leukemia = system: SR leukemia
M14 melanoma = system: M14 melanoma
U251 CNS = system: U251 CNS
IGROV1 ovarian = system: IGROV1 ovarian
LOX IMVI melanoma = system: LOX IMVI melanoma
BT-549 breast = system: BT-549 breast

SMILES: NC(N)=N/N=C/c1c(-c2ccc([N+](=O)[O-])cc2)nc2sc(Cl)cn12
- TGI (HOP-62 NSCLC): 3.11 µM
- TGI (SK-OV-3 ovarian): 3.31 µM
- TGI (OVCAR-5 ovarian): 2.69 µM
- TGI (HS 578T breast): > 100 µM
- TGI (A549 NSCLC): 3.09 µM
- TGI (NCI-H23 lung): 2.69 µM
- TGI (ACHN renal): 2.42 µM
- TGI (786-0 renal): 0.605 µM
- TGI (T-47D breast): > 100 µM
- TGI (HT29 colon): 3 µM
- TGI (CCRF-CEM leukemia): 1.14 µM
- TGI (UACC-62 melanoma): 3.01 µM
- TGI (NCI/ADR-RES ovarian): 3.45 µM
- TGI (UO-31 renal): 2.68 µM
- TGI (EKVX NSCLC): 1.53 µM
- TGI (OVCAR-4 ovarian): 0.954 µM
- TGI (KM12 colon): 2.4 µM
- TGI (SNB-75 CNS): 1.3 µM
- TGI (UACC-257 melanoma): 1.41 µM
- TGI (SN12C renal): 3.05 µM
- TGI (CAKI-1 renal): 3.76 µM
- TGI (A498 renal): 2.77 µM
- TGI (PC-3 prostate): 2.04 µM
- TGI (SF-539 CNS): 4.01 µM
- TGI (SF-268 CNS): 3.31 µM
- TGI (HOP-92 NSCLC): 4.05 µM
- TGI (RXF 393 renal): 3.8 µM
- TGI (MDA-N): 3.12 µM
- TGI (SK-MEL-5 melanoma): 3.6 µM
- TGI (MALME-3M melanoma): 3.63 µM
- TGI (COLO 205 colon): 2.06 µM
- TGI (SK-MEL-28 melanoma): 3.38 µM
- TGI (RPMI-8226 leukemia): 4 µM
- TGI (MDA-MB-435): 2.33 µM
- TGI (HCT-116 colon): 0.575 µM
- TGI (TK-10 renal): 3.69 µM
- TGI (SK-MEL-2 melanoma): 3.2 µM
- TGI (SW-620 colon): 1.46 µM

SMILES: O=C1NC(=NCCc2ccccc2F)S/C1=C\c1ccc2ncccc2c1
- GI50 (NCI-H460 lung): 6.57 µM
- TGI (NCI-H460 lung): > 25 µM
- GI50 (HOP-62 NSCLC): 9.31 µM
- TGI (HOP-62 NSCLC): > 25 µM
- GI50 (SK-OV-3 ovarian): 7.82 µM
- TGI (SK-OV-3 ovarian): > 25 µM
- GI50 (OVCAR-5 ovarian): > 20.4 µM
- TGI (OVCAR-5 ovarian): > 25 µM
- GI50 (HS 578T breast): 7.05 µM
- TGI (HS 578T breast): > 23.4 µM
- GI50 (A549 NSCLC): 5.39 µM
- TGI (A549 NSCLC): > 25 µM
- GI50 (SF-295 CNS): 7.06 µM
- TGI (SF-295 CNS): > 25 µM
- GI50 (MDA-MB-231 breast): 16.2 µM
- TGI (MDA-MB-231 breast): > 25 µM
- GI50 (NCI-H23 lung): 6.12 µM
- TGI (NCI-H23 lung): > 25 µM
- GI50 (ACHN renal): 9.06 µM
- TGI (ACHN renal): > 25 µM
- GI50 (786-0 renal): 8.71 µM
- TGI (786-0 renal): > 25 µM
- GI50 (T-47D breast): 9.55 µM
- TGI (T-47D breast): > 25 µM
- GI50 (HT29 colon): 5.87 µM
- TGI (HT29 colon): > 25 µM
- GI50 (CCRF-CEM leukemia): 5.05 µM
- TGI (CCRF-CEM leukemia): > 20.1 µM
- GI50 (UACC-62 melanoma): 7.1 µM
- TGI (UACC-62 melanoma): > 25 µM
- GI50 (NCI/ADR-RES ovarian): 9.2 µM
- TGI (NCI/ADR-RES ovarian): > 25 µM
- GI50 (UO-31 renal): 6.91 µM
- TGI (UO-31 renal): > 25 µM
- GI50 (HL-60(TB) leukemia): 9.14 µM
- TGI (HL-60(TB) leukemia): 22.1 µM
- GI50 (NCI-H226 lung): 7.59 µM
- TGI (NCI-H226 lung): > 25 µM
- GI50 (DU-145 prostate): 8.81 µM
- TGI (DU-145 prostate): > 25 µM
- GI50 (HCC-2998 colon): 8.55 µM
- TGI (HCC-2998 colon): > 25 µM
- GI50 (NCI-H522 lung): 4.74 µM
- TGI (NCI-H522 lung): 16.9 µM
- GI50 (OVCAR-4 ovarian): 6.45 µM
- TGI (OVCAR-4 ovarian): > 20.6 µM
- GI50 (OVCAR-8 ovarian): 9.65 µM
- TGI (OVCAR-8 ovarian): > 25 µM
- GI50 (KM12 colon): 4.02 µM
- TGI (KM12 colon): > 25 µM
- GI50 (SNB-75 CNS): 5.34 µM
- TGI (SNB-75 CNS): 19.1 µM
- GI50 (MCF7 breast): 1.68 µM
- TGI (MCF7 breast): > 25 µM
- GI50 (HCT-15 colon): 1.84 µM
- TGI (HCT-15 colon): > 25 µM
- GI50 (MOLT-4 leukemia): 9.02 µM
- TGI (MOLT-4 leukemia): > 25 µM
- GI50 (UACC-257 melanoma): 9.35 µM
- TGI (UACC-257 melanoma): > 25 µM
- GI50 (SN12C renal): 8.18 µM
- TGI (SN12C renal): > 25 µM
- GI50 (SNB-19 CNS): 5.68 µM
- TGI (SNB-19 CNS): > 25 µM
- GI50 (CAKI-1 renal): 5.29 µM
- TGI (CAKI-1 renal): > 19.7 µM
- GI50 (A498 renal): 4.83 µM
- TGI (A498 renal): 18.2 µM
- GI50 (OVCAR-3 ovarian): 7.35 µM
- TGI (OVCAR-3 ovarian): 24.2 µM
- GI50 (PC-3 prostate): 13.4 µM
- TGI (PC-3 prostate): > 25 µM
- GI50 (K-562 leukemia): 2.78 µM
- TGI (K-562 leukemia): > 25 µM
- GI50 (SF-539 CNS): 5.18 µM
- TGI (SF-539 CNS): > 25 µM
- GI50 (SF-268 CNS): 7.76 µM
- TGI (SF-268 CNS): > 25 µM
- GI50 (HOP-92 NSCLC): 7.84 µM
- TGI (HOP-92 NSCLC): > 25 µM
- GI50 (RXF 393 renal): 7.18 µM
- TGI (RXF 393 renal): > 25 µM
- GI50 (SR leukemia): 0.88 µM
- TGI (SR leukemia): 8.83 µM
- GI50 (SK-MEL-5 melanoma): 5.85 µM
- TGI (SK-MEL-5 melanoma): 19.4 µM
- GI50 (MALME-3M melanoma): 11.4 µM
- TGI (MALME-3M melanoma): > 25 µM
- GI50 (COLO 205 colon): 6.54 µM
- TGI (COLO 205 colon): > 25 µM
- GI50 (SK-MEL-28 melanoma): 11.7 µM
- TGI (SK-MEL-28 melanoma): > 25 µM
- GI50 (RPMI-8226 leukemia): 4.18 µM
- TGI (RPMI-8226 leukemia): 24.9 µM
- GI50 (M14 melanoma): 8.42 µM
- TGI (M14 melanoma): > 25 µM
- GI50 (U251 CNS): 4.69 µM
- TGI (U251 CNS): > 25 µM
- GI50 (MDA-MB-435): 1.57 µM
- TGI (MDA-MB-435): > 16.8 µM
- GI50 (HCT-116 colon): 1.27 µM
- TGI (HCT-116 colon): > 25 µM
- GI50 (IGROV1 ovarian): 7.02 µM
- TGI (IGROV1 ovarian): > 25 µM
- GI50 (TK-10 renal): 5.13 µM
- TGI (TK-10 renal): > 25 µM
- GI50 (SK-MEL-2 melanoma): 6.16 µM
- TGI (SK-MEL-2 melanoma): 14.5 µM
- GI50 (LOX IMVI melanoma): 1.82 µM
- TGI (LOX IMVI melanoma): > 25 µM
- GI50 (BT-549 breast): 6.48 µM
- TGI (BT-549 breast): > 25 µM
- GI50 (SW-620 colon): 2.73 µM
- TGI (SW-620 colon): > 25 µM
